In PubChem BioAssay (NCI):
Where “and” joins values, the source holds several entries; their conditions need not be identical. Equal entries are not always repeated.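 Results reflect a 48-hour exposure of cells in 96-well plates to compound at five concentrations. Here, GI50 denotes the concentration required for 50% inhibition of growth. At the TGI there is no net growth.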

Tests used:
Experiment in all cases: growth of human tumour cells (NCI), 48 h
SW-620 colon = tested on: SW-620 colon
NCI-H23 lung = tested on: NCI-H23 lung
LOX IMVI melanoma = tested on: LOX IMVI melanoma
SNB-75 CNS = tested on: SNB-75 CNS
NCI-H226 lung = tested on: NCI-H226 lung
OVCAR-3 ovarian = tested on: OVCAR-3 ovarian
HL-60(TB) leukemia = tested on: HL-60(TB) leukemia
T-47D breast = tested on: T-47D breast
HS 578T breast = tested on: HS 578T breast
DU-145 prostate = tested on: DU-145 prostate

Row | SMILES | TGI (SW-620 colon) | TGI (NCI-H23 lung) | TGI (LOX IMVI melanoma) | TGI (SNB-75 CNS) | TGI (NCI-H226 lung) | TGI (OVCAR-3 ovarian) [µM] | TGI (HL-60(TB) leukemia) [µM] | GI50 (HL-60(TB) leukemia) [µM] | GI50 (SW-620 colon) | GI50 (T-47D breast) [µM] | TGI (T-47D breast) [µM] | GI50 (OVCAR-3 ovarian) | GI50 (NCI-H23 lung) | GI50 (HS 578T breast) | TGI (HS 578T breast) | GI50 (LOX IMVI melanoma) | GI50 (DU-145 prostate) | TGI (DU-145 prostate) | GI50 (SNB-75 CNS) | GI50 (NCI-H226 lung)
1 | CC1(C)NC(=O)N(CCCCCCN2C(=O)NC(C)(C)C2=O)C1=O | > 100 µM | > 100 µM | > 100 µM | > 100 µM | > 100 µM |  |  |  |  |  |  |  |  |  |  |  |  |  |  | 
2 | OCC1OC2c3ccccc3COC2C1OCc1ccccc1 (stereo not drawn) | > 100 µM | > 100 µM |  | > 100 µM | > 100 µM | > 100 |  |  |  |  |  |  |  |  |  |  |  |  |  | 
3 | O=C(Cc1ccccc1[N+](=O)[O-])C(CO)c1ccccc1[N+](=O)[O-] (stereo not drawn) | > 100 µM | > 100 µM | > 100 µM | > 100 µM | > 100 µM | > 100 | > 100 |  |  |  |  |  |  |  |  |  |  |  |  | 
4 | NC(=O)c1cccc2c(N[C@H](CN3CCC3)c3ccc(Cl)c(C(F)(F)F)c3)ncnc12 | 16.3 µM | 17 µM | 14.7 µM | 0.918 µM | 16.2 µM | 16.2 | 5.64 | 2.13 | 3.43 µM | 0.101 | 2.47 | 3.3 µM | 3.08 µM | 0.191 µM | 2.65 µM | 2.73 µM | 2.24 µM | 16.2 µM | 0.0506 µM | 1.99 µM
5 | N#CCCN(CCC#N)c1ccc(/C=C(/NC(=O)c2cc([N+](=O)[O-])ccc2Cl)C(=O)NN)cc1 | > 100 µM | > 100 µM | > 100 µM | > 100 µM | > 100 µM | > 100 |  |  |  |  |  |  |  |  |  |  |  |  |  | 
6 | N#Cc1c(NCc2ccccc2)nc(NCc2ccccc2)c(C#N)c1-c1ccc(Cl)cc1 | > 100 µM | > 100 µM | > 100 µM | > 100 µM | > 50 µM and 81.4 µM | > 100 | > 50 | > 50 | > 50 µM and 44.1 µM | > 100 | > 100 | > 50 µM and 34.4 µM | > 50 µM and 67.1 µM | > 50 µM and 37.8 µM | > 50 µM and 86.6 µM | > 50 µM and 29.7 µM | > 50 µM and 52.8 µM | > 100 µM | > 50 µM and 34.7 µM | > 50 µM and 25.6 µM
7 | CC(=O)c1ccccc1NC(=O)C(=O)C(C(=O)c1ccc2ccccc2c1)C1OC(=O)c2ccccc21 (stereo not drawn) | 40.6 µM | 26.8 µM | 26.4 µM | 25.6 µM | 7.86 µM | 54.3 | 43.6 |  |  |  |  |  |  |  |  |  |  |  |  | 
8 | COC(=O)Cc1c([C@@]2(C)CCCC(C)(C)C2)ccc2c1C(=O)OC2 | > 100 µM | 34.6 µM | 24.2 µM | 28.7 µM | 28.4 µM | 20.7 | 13.3 |  |  |  |  |  |  |  |  |  |  |  |  | 
9 | CCCCCCCCCCCCCC[n+]1ccccc1 | 2.59 µM | 3.02 µM |  | 2.22 µM |  | 2.26 | 0.838 | 0.262 | 0.779 µM | 0.486 | 7.54 | 0.674 µM | 0.507 µM | 1.59 µM | 5.13 µM |  | 1.17 µM | 2.85 µM | 0.523 µM | 
10 | COc1ccc(/C=C/C(=O)c2c(O)ccc3c(C)c(C(=O)O)oc23)cc1 | > 100 µM | > 100 µM | > 100 µM |  | > 100 µM | > 100 | > 100 | 35.5 | 56.3 µM | 64.7 | > 100 | 58.3 µM | 74.2 µM | 39.7 µM | > 100 µM | 35.6 µM | > 100 µM | > 100 µM |  | 45.1 µM
11 | N/C=N/S(=O)(=O)c1ccc(NC(=O)COC(=O)c2cccc3c(=O)c4ccccc4[nH]c23)cc1 | > 100 µM | > 100 µM | > 100 µM | > 100 µM | > 100 µM | > 100 | > 100 |  |  |  |  |  |  |  |  |  |  |  |  | 
12 | O=[N+]([O-])c1cc(-c2nc(=S)[nH][nH]2)ccc1O | 18.4 µM | > 100 µM | > 100 µM |  |  |  | > 100 |  |  |  |  |  |  |  |  |  |  |  |  | 
13 | CC1CCC2C(C)C(=O)OC3OC4(C)CCC1C32OO4 (stereo not drawn) | > 100 µM | > 100 µM | > 100 µM | > 97.2 µM | > 100 µM | > 100 | > 100 |  | > 100 µM |  |  |  | > 100 µM | > 100 µM | > 100 µM |  |  |  |  | > 100 µM
14 | NC1N=Nc2ccccc21 (stereo not drawn) | > 100 µM | > 100 µM | > 100 µM | > 100 µM | > 100 µM | > 100 | > 100 |  |  |  |  |  |  |  |  |  |  |  |  | 
15 | N#CC(C#N)=CNCCN1CCN(C=C(C#N)C#N)CC1 | > 100 µM | > 100 µM | > 100 µM |  | > 100 µM | > 100 | > 100 |  |  |  | > 100 |  |  |  | > 100 µM |  |  | > 100 µM |  | 
16 | COc1cc2c(c(O)c1Cl)C(=O)c1c(O)cc(C[C@H](C)O)cc1[C@H]2[C@H]1c2cc(C[C@H](C)O)cc(O)c2C(=O)c2c1cc(OC)c(Cl)c2O | 75 µM and > 100 µM | 75 µM and 84.6 µM | 13.2 µM and > 100 µM | 16.4 µM and 70.3 µM | 75 µM and 98.1 µM |  |  |  |  |  |  |  |  |  | 75 µM and 64.9 µM |  |  | 75 µM and > 100 µM |  | 
17 | COc1ccc2c(c1)[n+]([O-])c(-c1cccc(Cl)c1)c(N)[n+]2[O-] | > 100 µM | 65.6 µM |  |  | > 100 µM | > 100 | 95.6 |  |  |  |  |  |  |  |  |  |  |  |  | 
18 | Cc1cc(Cl)nc2ccc(Cc3ccc4nc(Cl)cc(C)c4c3)cc12 | > 100 µM | > 100 µM | > 100 µM | 19.8 µM | > 100 µM | > 100 |  |  |  |  | 54.8 |  |  |  | > 100 µM |  |  | > 100 µM |  | 
19 | O=C(NC(=Nc1ccccc1)SCSC(=Nc1ccccc1)NC(=O)c1ccco1)c1ccco1 | > 100 µM | 80.6 µM | > 100 µM | 35.1 µM | > 100 µM | > 100 |  |  |  |  |  |  |  |  |  |  |  |  |  | 
20 | O=C(CCC(=O)Nc1ccc(Cl)c(Cl)c1)CC(=O)c1ccc2ccccc2c1 | > 100 µM | > 100 µM | > 100 µM | > 100 µM | > 100 µM | > 100 | > 100 |  |  |  |  |  |  |  |  |  |  |  |  | 
21 | COc1ccc(Nc2nc3cc(C(F)(F)F)ccc3nc2-c2ccccc2)cc1OC | > 100 µM | > 100 µM | > 100 µM | > 100 µM | 69.7 µM | > 100 |  |  |  |  |  |  |  |  |  |  |  |  |  | 
22 | O=C(/C=C/C12c3ccccc3C(c3ccccc31)C1C(=O)N(c3ccc(Cl)cc3)C(=O)C12)c1ccccn1 (stereo not drawn) | 0.994 µM | 1.36 µM | 0.358 µM | 1.05 µM | 0.878 µM | 0.52 | 1.35 | 0.24 | 0.3 µM | 0.312 | 4.15 | 0.224 µM | 0.342 µM |  |  | 0.177 µM | 0.283 µM | 0.747 µM | 0.256 µM | 0.258 µM
